According to patent US11186534B2, “Derivatives of sulindac can protect normal cells against oxidative damage” (University of South Alabama, priority 2017, dated 2021):

Experiments:
[1] = test system: rat intact hearts (Langendorff model); experiment: Langendorff model of ischemia/reperfusion injury, LDH release; type: in vivo, Sprague Dawley rats
Method: The ex vivo Langendorff procedure is a well-established preparation used to investigate heart physiology, ischemia/reperfusion injury, and other cardiovascular insults (23, 24; also see, e.g., reference 22). Sprague Dawley rats (275-325g) were administered either no drug or Compound 9 daily (at 0.7 mg/kg) for a total of two days (two administrations in total). Forty-eight hours after the start of drug exposure, hearts were removed and exposed to 45 min no flow ischemia and 2 h reperfusion in the Langendorff model (hearts were first equilibrated in KHB buffer for 10 min and then subjected to 45 min ischemia followed by 2 h reperfusion with KHB buffer), in the absence of drug.
In LDH and TTC assays for the Langendorff Preparation, coronary effluent samples (500 μL) from the Langendorff preparation were obtained upon attachment of excised heart, every 15 min before ischemia, immediately after 45 min ischemia, and at 15 min intervals during reperfusion. LDH was measured (using a Cytotox-96 nonradioactive cytotoxicity assay kit (Promega), with the absorbance read at 490 nm). Immediately upon completion, the heart was sliced into 2-mm cross-sectional pieces and slices were incubated for 30 min with 1% 2,3,5-triphenyl tetrazolium chloride (TTC) stain in Krebs-Henseleit buffer (KHB) (pH=7.4) at 37° C. to distinguish between viable (red) and nonviable (white) tissue. Tissue slices were stored overnight in 10% formaldehyde before measurement of infarct size using NIH-Image J software.
The protective (preconditioning) effect of Compound 9 was evaluated in an art-recognized Langendorff model of ischemia/reperfusion injury. Compound 9 was administered via i.p. injection to test animals daily for two days, and animal hearts were then removed for performance of the Langendorff procedure (described above and known in the art).

[2] = target: PDE5 (Homo sapiens, UniProt O76074); experiment: IMAP fluorescence polarization PDE assay, PDE5; type: biochemical; settings: FIG. 5A
Method: PDE activity was measured using the IMAP fluorescence polarization PDE assay (Molecular Devices) in which the binding of hydrolyzed fluorescent cyclic nucleotide substrate to the IMAP reagent increases fluorescence polarization. Each well of a 96-well nonbinding plate contained 0.25 mg/mL of recombinant enzyme preparations. Enzymes were incubated with COMPOUND 9 or vehicle (DMSO) for 30 min at 30° C. before the addition of a substrate mixture containing 25 nmol/L of fluorescein-cGMP. The DMSO final concentration for each experiment was 2%. After 90 min of incubation at 30° C., the reaction was terminated by the addition of binding reagent. The maximum Fluorescence polarization was measured using a Synergy4 (BioTek) plate reader.

[3] = test system: Retinal pigmented epithelium cells (ARPE-19); experiment: Cell viability assay: protection of RPE cells against oxidative damage from TBHP; type: cell-based; as to Cyto-protective activity*: key: active = more active than Sulindac; inactive = less active than Sulindac
Method: Cultured cells and reagents: Retinal pigmented epithelium cells (ARPE-19) were obtained from American Type Culture Collection (ATCC, Manassas, Va.) and cultured at 37° C. in 5% CO2. All chemicals were purchased from Sigma unless specified.
Cell viability assay: Cells were cultured and assayed for cell viability essentially as described previously (14). ARPE-19 cells were plated at 10,000 cells per well in a 96-well plate. The cells were grown for 18-20 hours, the medium discarded in aseptic conditions and replaced with fresh culture medium containing the indicated drug concentration. The plates were incubated for 24 hours at 37° C. in a 5% CO2 incubator in the presence of sulindac or Compound 9. To examine the treatment effects on oxidative damage to RPE cells, cells were washed and incubated in media without serum with various concentrations of tert-butyl hydroperoxide (TBHP) for an additional 24h. The culture medium was then discarded and the cells were thoroughly rinsed in PBS. Cell viability was determined by using the Cell Titer 96 Aqueous One Cell Proliferation Assay (Promega) according to the manufacturer's instructions. The assay utilizes a tetrazolium compound that is converted into a water-soluble formazan by the action of cellular NADH oxidase activity in metabolically active cells. The formazan was quantified by measuring the absorbance at 490 nm using a colorimetric microtiter plate reader (SpectraMax Plus; Molecular Devices).
In the present studies, a series of compounds were identified as having the ability to protect RPE cells against oxidative damage using tert-butyl hydroperoxide (TBHP), an organic peroxide, as an oxidizing agent (10).

[4] = 0.7 mg/kg i.p. daily for 48 h, FIG. 9

SMILES: COc1cc2c(cc1OC)/C(=C\c1cc(OC)c(OC)c(OC)c1)C(C)=C2CC(=O)O [Compound 9, (Z)-2-(5,6-dimethoxy-2-methyl-1-(3,4,5-trimethoxybenzylidene)-1H-inden-3-yl)acetic acid]
- Protective effect during the 45 min ischemia phase [1, 4]: robust protective effect
- Protective effect during the 2 h reperfusion phase [1, 4]: robust protective effect
- LDH levels vs no drug control ([1]; 2 h reperfusion, 0.7 mg/kg daily for 48 h, FIG. 7): decrease in LDH levels
- Levels of LDH released vs no drug ([1]; after 45 min no flow ischemia, 0.7 mg/kg daily for 48 h, FIG. 7): significantly lower
- IC50 [2]: ~32 µM
- Cyto-protective activity* ([3]; RPE cells, TBHP as oxidizing agent, relative to Sulindac): active
- Protective effect on RPE cells in combination with PKG inhibitor Rp-Br-8-PET-cGMPS ([3]; Rp-Br-8-PET-cGMPS 500 μM, 24 h, FIG. 6C): reduces the protection
- Lowest concentration found effective in protecting RPE cells ([3]; TBHP, FIG. 3): 10 µM
- Protective effect on RPE cells in combination with PKC inhibitor chelerythrine ([3]; chelerythrine 2 μM, 24 h, FIG. 6B): significantly reduces the protective effect
- TBHP concentration up to which complete protection of RPE cells was provided ([3]; compound at 25 μM, FIG. 2): ≤ 400 µM
- Times more active than sulindac in protecting RPE cells and other cells from oxidative damage ([3]; on a molar basis, stated as 'may be'): at least 10 times
- Fold lower effective concentration relative to sulindac (RPE cell protection) ([3]; sulindac 200 μM, Compound 10 at 25 μM, Compound 9 at 10 μM): 20 ×
- Protective effect on RPE cells in combination with ROS scavenger tiron ([3]; tiron 1 mM, 24 h, FIG. 6A): attenuates the protective effect
